Source: patent publication US6586393B2, “Antibiotics GE 23077, pharmaceutically acceptable salts and compositions, and use thereof” (priority 2000, dated 2003)
Read-outs that look alike come from different tables or passages of the source.

Assays:
M. catarrhalis = test: Activity of concentrated HPLC fractions of the complex against M. catarrhalis; assay type: cell-based, Moraxella catarrhalis; conditions: eluates of HPLC fractionation of the complex, concentrated under vacuum
E. coli RNA polymerase = biological target: T1, E. coli RNA polymerase (Escherichia coli, UniProt P0A8T7+P0A8V2); test: Inhibition of RNA polymerase, cell free transcription assay (3H-UTP incorporation); assay type: biochemical; conditions: 37° C., 15 minutes
T1 construct: purchased Epicentre Technology; Madison Wis
Experimental: The inhibition of RNA polymerase was determined in a cell free transcription assay performed in standard U-bottom 96-well plates. The [H^3]-UTP incorporation in RNA was measured in the material precipitated upon addition of trichloroacetic acid (TCA). The reaction mixture contained 50 mM Tris-HCl (pH8), 50 mM KCl, 10 mM MgCl2, 0.1 mM EDTA, 5 mM dithiothreitol (DTT), 10 μg/ml BSA, 20: g/ml calf thymus DNA, 1 mM ATP, 1 mM CTP, 1 mM GTP, 0.5 mCi ^3H-UTP and 0.5 U of E. coli RNA polymerase enzyme (Epicentre Technology; Madison Wis.). 5 μl of the tested solution were added to 45 μl of reaction mixture, incubated at 37° C. for 15 minutes and then quenched with 150 μl of ice-cold 10% (w/v) TCA. After 30 min in ice, the well content was collected on glass-fiber filters (Filtermat A, Wallac) using a 96 wells cell harvester (Wallac) and radioactivity was determined in a β-Plate scintillation counter (Wallac). Count per min (CPM) values are transformed in % of RNA polymerase inhibition by using the following formula:
% of RNA polymerase=100−[(CPM compound−CPM blank)/(CPM control−CPM blank)]*100
where: CPM compound is CPM in well with compound; CPM blank is CPM average in wells without enzyme template and CPM control is CPM average in wells without compound.

[1] = Conversion of factors A2 and B2 into A1 and B1 in DMSO (NMR); assay type: physicochemical; conditions: room temperature
Source text: The GE23077 complex is constituted of two couples of isomers: factors A1, A2 and factors B1, B2. It was observed that the individual pure Factor A1 and Factor A2, when kept in water solution or in mixtures of water miscible solvents and water solutions, reach an equilibrium state between them. […] The equilibration rate was accelerated at acidic and basic pHs. […] Accordingly, if recorded after complete conversion, the spectra relating to factors A2 and B2 correspond to the ones of the factors A1 and B1, respectively.

T1 sequence (P0A8V2 whole entry): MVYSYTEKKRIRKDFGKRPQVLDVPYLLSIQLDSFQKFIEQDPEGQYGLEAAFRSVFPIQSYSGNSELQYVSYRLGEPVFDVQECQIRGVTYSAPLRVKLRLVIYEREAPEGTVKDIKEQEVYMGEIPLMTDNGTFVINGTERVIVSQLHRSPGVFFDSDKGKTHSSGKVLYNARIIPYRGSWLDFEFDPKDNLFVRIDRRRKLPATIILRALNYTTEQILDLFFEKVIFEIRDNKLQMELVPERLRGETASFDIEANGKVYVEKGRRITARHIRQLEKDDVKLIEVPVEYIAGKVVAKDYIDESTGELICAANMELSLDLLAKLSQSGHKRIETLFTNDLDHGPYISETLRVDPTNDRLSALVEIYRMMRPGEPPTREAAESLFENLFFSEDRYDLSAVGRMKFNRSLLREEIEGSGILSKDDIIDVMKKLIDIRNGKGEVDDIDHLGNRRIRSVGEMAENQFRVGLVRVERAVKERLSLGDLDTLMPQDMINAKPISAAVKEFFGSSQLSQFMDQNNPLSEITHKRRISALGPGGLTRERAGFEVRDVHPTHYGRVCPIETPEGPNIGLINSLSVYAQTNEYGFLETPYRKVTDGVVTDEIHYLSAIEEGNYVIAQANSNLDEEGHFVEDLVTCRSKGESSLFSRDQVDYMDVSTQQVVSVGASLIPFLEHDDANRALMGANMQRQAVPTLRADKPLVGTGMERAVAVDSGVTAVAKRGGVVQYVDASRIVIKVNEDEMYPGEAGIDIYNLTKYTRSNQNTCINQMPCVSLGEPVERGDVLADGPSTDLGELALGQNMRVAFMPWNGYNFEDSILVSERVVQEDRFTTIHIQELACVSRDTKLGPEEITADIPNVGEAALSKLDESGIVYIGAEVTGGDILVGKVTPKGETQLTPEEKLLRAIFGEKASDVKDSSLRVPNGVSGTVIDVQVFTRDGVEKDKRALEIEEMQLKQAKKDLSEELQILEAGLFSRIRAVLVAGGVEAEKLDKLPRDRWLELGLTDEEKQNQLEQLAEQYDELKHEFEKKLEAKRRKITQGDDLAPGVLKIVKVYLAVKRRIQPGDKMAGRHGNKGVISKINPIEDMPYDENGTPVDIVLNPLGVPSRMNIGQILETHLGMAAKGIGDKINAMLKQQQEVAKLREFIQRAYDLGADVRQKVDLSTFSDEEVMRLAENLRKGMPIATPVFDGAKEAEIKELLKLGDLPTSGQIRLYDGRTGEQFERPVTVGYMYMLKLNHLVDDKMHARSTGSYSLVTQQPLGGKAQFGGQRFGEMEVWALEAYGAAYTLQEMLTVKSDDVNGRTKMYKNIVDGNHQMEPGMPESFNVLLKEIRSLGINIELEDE
T1 sequence (P0A8T7 whole entry): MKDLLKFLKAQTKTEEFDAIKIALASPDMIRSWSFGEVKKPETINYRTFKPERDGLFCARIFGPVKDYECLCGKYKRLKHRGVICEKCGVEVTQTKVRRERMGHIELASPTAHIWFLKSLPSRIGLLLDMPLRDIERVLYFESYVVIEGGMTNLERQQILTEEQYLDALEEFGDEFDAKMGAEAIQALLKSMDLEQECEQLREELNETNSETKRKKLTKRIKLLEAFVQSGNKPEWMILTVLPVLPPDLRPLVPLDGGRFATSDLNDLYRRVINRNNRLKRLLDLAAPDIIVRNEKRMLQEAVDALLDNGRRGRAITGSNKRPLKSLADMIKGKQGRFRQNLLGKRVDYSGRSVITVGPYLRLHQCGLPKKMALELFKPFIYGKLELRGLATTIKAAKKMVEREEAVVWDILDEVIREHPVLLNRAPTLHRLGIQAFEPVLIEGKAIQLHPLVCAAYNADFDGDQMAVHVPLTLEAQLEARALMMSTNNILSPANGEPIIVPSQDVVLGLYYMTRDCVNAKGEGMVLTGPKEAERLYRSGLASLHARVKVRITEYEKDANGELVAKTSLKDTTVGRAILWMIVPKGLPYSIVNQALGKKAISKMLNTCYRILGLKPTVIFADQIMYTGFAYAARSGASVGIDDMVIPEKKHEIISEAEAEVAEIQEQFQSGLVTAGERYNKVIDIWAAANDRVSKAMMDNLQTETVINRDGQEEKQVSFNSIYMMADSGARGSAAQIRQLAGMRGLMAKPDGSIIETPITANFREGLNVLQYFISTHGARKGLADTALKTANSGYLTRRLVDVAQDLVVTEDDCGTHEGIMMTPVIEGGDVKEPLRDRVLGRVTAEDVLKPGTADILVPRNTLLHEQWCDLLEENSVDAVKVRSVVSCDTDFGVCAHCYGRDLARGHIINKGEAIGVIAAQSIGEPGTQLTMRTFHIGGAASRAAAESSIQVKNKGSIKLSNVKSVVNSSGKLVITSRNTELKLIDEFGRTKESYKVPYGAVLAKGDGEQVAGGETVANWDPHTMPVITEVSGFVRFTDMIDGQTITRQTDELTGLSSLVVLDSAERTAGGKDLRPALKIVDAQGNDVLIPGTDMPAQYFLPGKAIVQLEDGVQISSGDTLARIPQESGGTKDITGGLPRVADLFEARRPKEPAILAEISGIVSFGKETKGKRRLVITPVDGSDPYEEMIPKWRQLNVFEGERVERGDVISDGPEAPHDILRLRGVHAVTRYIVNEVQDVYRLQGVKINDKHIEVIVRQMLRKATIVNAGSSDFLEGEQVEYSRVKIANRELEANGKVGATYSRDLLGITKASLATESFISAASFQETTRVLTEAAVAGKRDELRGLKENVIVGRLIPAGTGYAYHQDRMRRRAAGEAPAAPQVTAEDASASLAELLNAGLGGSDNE
T1 sequence (P0A7Z4 whole entry partner): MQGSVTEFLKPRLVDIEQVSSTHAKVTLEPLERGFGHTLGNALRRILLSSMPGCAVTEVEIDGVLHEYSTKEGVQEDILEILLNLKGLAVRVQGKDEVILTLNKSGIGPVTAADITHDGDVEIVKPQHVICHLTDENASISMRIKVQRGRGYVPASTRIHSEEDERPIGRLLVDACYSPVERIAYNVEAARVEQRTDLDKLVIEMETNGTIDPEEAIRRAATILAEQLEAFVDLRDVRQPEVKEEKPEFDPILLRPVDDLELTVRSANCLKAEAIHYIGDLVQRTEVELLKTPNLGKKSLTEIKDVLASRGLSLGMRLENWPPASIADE
T1 sequence (P0A800 whole entry partner): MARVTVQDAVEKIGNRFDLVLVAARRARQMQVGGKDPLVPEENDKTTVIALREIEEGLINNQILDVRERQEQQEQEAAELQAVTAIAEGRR

SMILES: CC=C(C)C(=O)NCC1NC(=O)C(C(=O)O)NC(=O)C(O)CNC(=O)C(C(C)O)NC(=O)C(C(O)C(O)C(N)=O)NC(=O)C(C(C)C)NC(=O)C(CO)NC1=O (single isomer, unassigned) [Factor A1]
- Inhibition of M. catarrhalis by HPLC fractions containing the separated factors (M. catarrhalis): inhibited the test microorganism
- IC50 (E. coli RNA polymerase; IC50 of E. coli RNA polymerase): 187 nM

SMILES: CC=C(C)C(=O)NCC1NC(=O)C(C(=O)O)NC(=O)C(O)CNC(=O)C(C(C)O)NC(=O)C(C(O)C(O)C(N)=O)NC(=O)C(C(C)C)NC(=O)C(CO)NC1=O (single isomer, unassigned) [Factor A2]
- Time for full conversion into factor A1 / B1 [1]: 12 h
- Inhibition of M. catarrhalis by HPLC fractions containing the separated factors (M. catarrhalis): inhibited the test microorganism
- IC50 (E. coli RNA polymerase; IC50 of E. coli RNA polymerase): 43.5 nM

SMILES: CC(C)CC(=O)NCC1NC(=O)C(C(=O)O)NC(=O)C(O)CNC(=O)C(C(C)O)NC(=O)C(C(O)C(O)C(N)=O)NC(=O)C(C(C)C)NC(=O)C(CO)NC1=O (single isomer, unassigned) [Factor B1]
- Inhibition of M. catarrhalis by HPLC fractions containing the separated factors (M. catarrhalis): inhibited the test microorganism
- IC50 (E. coli RNA polymerase; IC50 of E. coli RNA polymerase): 124 nM

SMILES: CC(C)CC(=O)NCC1NC(=O)C(C(=O)O)NC(=O)C(O)CNC(=O)C(C(C)O)NC(=O)C(C(O)C(O)C(N)=O)NC(=O)C(C(C)C)NC(=O)C(CO)NC1=O (single isomer, unassigned) [Factor B2]
- Time for full conversion into factor A1 / B1 (in words) [1]: few minutes
- Inhibition of M. catarrhalis by HPLC fractions containing the separated factors (M. catarrhalis): inhibited the test microorganism
- IC50 (E. coli RNA polymerase; read-out: IC50 of E. coli RNA polymerase (converted)): 24.8 nM
